Tests used:
AMPK = AMPK activity assay at cell level (western blot of p-AMPKα and p-ACC in MEFs); assay type: cell-based, mouse; conditions: MEF cells, compound 10 nM, 2 h; multiple of the ratio relative to positive control AICAR (3 mM); band brightness by Image J
Procedure: The ability of compounds to activate AMPK in mouse embryonic fibroblasts (MEFs) was determined, which could be specifically carried out by detecting the phosphorylation level (p-AMPKα) of threonine at the 172nd position of AMPK and the phosphorylation level (p-ACC) of serine at the 79th position of the susbtrate ACC1/ACC2 of AMPK (FIG. 1 and Table I) by western blot.
The specific method was as follows: • (1) MEFs with loxP insertion sequences or of wild-type were plated in a 6-well plate and cultured in DMEM containing 10% serum. If a gene needed to be knocked out at this time, when the density of the corresponding MEFs with loxP insertion sequences reached about 30%, an adenovirus capable of expressing cre should be added to the culture well followed by further culture for more than 24 h; • (2) When the cell density was close to 90%, the cells were provided with fresh DMEM, at the same time, a compound (final concentration 10 nM) was added to the cells, followed by culture for 2 h, with an equal volume of DMSO as the negative control, and the cells treated with the addition of AICAR (3 mM) as the positive control; • (3) After sucking up the culture solution, the cells were lysed with 200 μL of a cell lysate (its formulation was given below), then the cells were scraped from the culture dish, ultrasonicated, and subjected to low temperature centrifugation at 20000 g for 10 min; • (4) The supernatant and an equal volume of 2*SDS solution (its formulation was given below) were mixed, and subjected to SDS-PAGE in a concentration of 8%, then the protein was transferred to PVDF membrane; each PVDF membrane was blocked with 25 mL of skim milk for 1 h, and then rinsed with TBST buffer (its formulation was given below) 3 times for 10 min each time; • (5) AMPKα subunit primary antibody (Cell Signaling Technology, #2532), primary antibody of phosphothreonine at the 172nd position of AMPK (Cell Signaling Technology, #2535), ACC primary antibody (Cell Signaling Technology, #3662), or primary antibody of phosphoserine at the 79th position of ACC (Cell Signaling Technology, #3661) was diluted in a ratio of 1:1000 with a primary antibody dilution (its formulation was given below), reacted with the PVDF membrane at room temperature for 12 h, and then rinsed 3 times with TBST buffer; • (6) A 1:1000 dilution of HRP-conjugated goat anti-rabbit secondary antibody (Jackson ImmunoResearch, 111-035-003) was added, reacted at room temperature for 1 h, and then rinsed 3 times with TBST buffer; • (7) The PVDF membrane was dried, reacted in an ECL mixture (WesternBright ECL HRP substrate, Advansta) and subjected to exposure with medical X-ray, developed, finally rinsed, dried, and then scanned to obtain data related to AMPK activation.
The formulations of reagents used were: • Cell lysate: 20 mM Tris-base, pH 7.5, 150 mM NaCl, 1 mM EDTA, 1 mM EGTA, 2.5 mM Sodium pyrophosphate, 1 mM β-glycerolphosphate, 1% Triton X-100 (v/v); • 2*SDS solution: 20% Glycerol (v/v), 4% SDS (m/v), 10% β-mecaptoethanol (v/v), 0.01% Bromophenol blue (m/v); • TBST buffer: 4.84% Tris-base (m/v), 8% NaCl (m/v), 0.1% Tween-20 (v/v); • Primary antibody dilution: TBST buffer containing 5% BSA (v/v).

[1] = Liver microsome stability test, human liver microsome; assay type: in vitro ADME; conditions: 0.5 mg protein/mL microsome, 1 μM compound, 37° C., NADPH, read-out: HLM 0.5 T1/2 (min), half life in human liver microsome
Procedure: (§1) The experimental steps were as follows: • 1. Preparation of working solution • 1.1 Intermediate solution: 5 μL of a 10 mM stock solution of sample or control was taken out, and diluted with 495 μl of methanol (Conc.: 100 μM, 99% MeOH). • 1.2 Working solution: 50 μL of the intermediate solution was taken out, and diluted with 450 μL of a 100 mM potassium phosphate buffer (Conc.: 10 μM, 9.9% MeOH). • 2. Preparation of NADPH cofactor
(§2) An appropriate amount of NADPH powder was weighed, and dissolved with a MgCl2 (10 mM) solution. • 3. Liver microsome • 3.1 Liver microsome information
(§3) • 3.2 Preparation: a microsome working solution with an appropriate concentration was prepared by using a 100 mM potassium phosphate buffer. • 4. Stop solution
(§4) Glacial acetonitrile, comprising 100 ng/ml Tolbutamide and 100 ng/ml Labetalol as internal standards. • 5. Experimental procedures • 5.1 10 μL of the working solution of sample or control was added per well to all plates (T0, T5, T10, T20, T30, T60, NCF60), except for the blank group; • 5.2 80 μL of the working solution of microsome was added per well to all plates, followed by incubation for 10 min at 37° C.; • 5.3 10 μL of a 100 mM potassium phosphate buffer was added per well to NCF60, followed by incubation at 37° C. and starting timer 1;
(§5) • 5.4 After preheating, 10 μL of NADPH was added per well to each plate, and reaction was started;
(§6) Final concentration of each component in the incubation medium:
(§7) • 5.6 300 μL of the stop solution was added per well to stop the reaction; • 5.7 The system was shaken for about 10 min; • 5.8 The samples were centrifuged (4000 rpm) at 4° C. for 20 min; • 5.9 To 8 new 96-well plates, 300 μL of HPLC water was added per well, then 100 μL of the supernatant was added, mixed and subjected to LC/MS/MS.
(§8) In the above table, HLM 0.5 T1/2 (min) refers to half life (min) of compounds in human liver microsome, DLM 0.5 T1/2 (min) refers to half life (min) of compounds in Beagle dog liver microsome.

[2] = Liver microsome stability test, Beagle dog liver microsome; assay type: in vitro ADME; conditions: 0.5 mg protein/mL microsome, 1 μM compound, 37° C., NADPH, read-out: DLM 0.5 T1/2 (min), half life in Beagle dog liver microsome
Procedure: as §1, §2, §3, §4, §5, §6, §7, §8

| SMILES | Degree of AMPK activation, p-ACC/ACC (AMPK) | Degree of AMPK activation, p-AMPKα/AMPK (AMPK) | half-life at 1 μM ([1]; microsomes) [min] | half-life at 1 μM ([2]; microsomes) [min] | half-life at 1 μM ([1]; liver microsomes) [min] | half-life at 1 μM ([2]; liver microsomes) [min] |
| --- | --- | --- | --- | --- | --- | --- |
| Cc1n(CCCCCCCCCCCC(F)(F)C(F)(F)C(F)(F)C(F)(F)F)cc[n+]1Cc1c(Cl)cccc1Cl.[Cl-] [IB-16] | 0.77 | 2.28 | > 145 | > 145 | – | – |
| Cc1n(CCCCCCCCCCCCCCCCF)cc[n+]1Cc1c(Cl)cccc1Cl.Cl [IA-1] | 0.42 | 1.01 | – | – | 22.3 | 8.5 |
| CC(C)c1n(CCCCCCCCCCCC(F)(F)C(F)(F)C(F)(F)C(F)(F)C(F)(F)F)cc[n+]1Cc1c(Cl)cccc1Cl.[Cl-] [IB-41] | 1.49 | 0.94 | 85.3 | 79.7 | – | – |
| Cc1n(CCCCCCCCCCCC(F)(F)C(F)(F)C(F)(F)C(F)(F)C(F)(F)C(F)(F)F)cc[n+]1Cc1c(Cl)cccc1Cl.[Cl-] [IB-50] | 1.09 | 0.65 | > 145 | 122 | – | – |
| Cc1n(CCCCCCCCCCCC(F)(F)C(F)(F)C(F)(F)F)cc[n+]1Cc1c(Cl)cccc1Cl.[Cl-] [IB-4] | 0.80 | 1.66 | > 145 | > 145 | – | – |
| FC(F)(F)C(F)(F)C(F)(F)C(F)(F)C(F)(F)CCCCCCCCCCCn1cc[n+](Cc2c(Cl)cccc2Cl)c1C1CC1.[Cl-] [IB-44] | 1.56 | 0.59 | 93 | 127 | – | – |
| Cc1n(CCCCCCCCCCCC(F)(F)C(F)(F)C(F)(F)C(F)(F)C(F)(F)F)cc[n+]1Cc1c(F)cccc1Cl.[Cl-] [IB-34] | 0.63 | 0.98 | 192 | 110 | – | – |
| Cc1n(CCCCCCCCCCCC(F)(F)C(F)(F)C(F)(F)C(F)(F)C(F)(F)F)cc[n+]1Cc1c(Cl)cccc1Cl.[I-] [IB-38] | 1.34 | 2.06 | > 145 | > 145 | – | – |
